“Also recorded” adds a separate entry of the source.

From patent US20110008343A1, “Method Of Reducing Tissue Loss In Pancreatic Islet Cell Transplantation” (priority 2007, published 2011) come the findings set out here.

Data set [1] concerns human islets. Put plainly: Binding of C3b/iC3b to human islets incubated in AB0-compatible hirudin-treated plasma (COPAS, confocal microscopy). The class given is cell-based. As for the experimental part: (§1) Complex object parametric analyzer and sorter (COPAS) analysis: The fluorescence-stained islets were analyzed using a complex object parametric analyzer and sorter (COPAS; Union Biometrica, Somerville, Mass.), which is a large-particle-based flow cytometry instrument. One thousand islets were collected using a 488/514 multi-line laser, and positive cells were sorted out for further analysis by confocal microscopy. The COPAS flow cytometry data were analyzed using CellQuest™ Pro software (BD Biosciences Immunocytometry Systems). Data are reported as mean fluorescent intensity (MFI).
Confocal microscopy: Stained islets were contained in a drop of PBS in a small Petri dish and protected from light before examination in the confocal microscope (Zeiss 510 Meta confocal, Carl Zeiss, Jena, Germany). Examination of the stained islets was performed using the 488-nm laser at 10× magnification. […]
FITC-labeled antibodies recognizing the following proteins were diluted and used according to the manufacturer's recommendations: Clq (AbCam, Cambridge, UK), C3c (for detection of C3b and iC3b), C4, C9, mannose-binding lectin (MBL), IgG, and IgM (DakoCytomation, Glostrup, Denmark). […] After washing, the islets were treated with 1% formaldehyde (Apoteket, Gothenburg, Sweden) and held on ice until analyzed by COPAS and confocal microscopy.

The subject of another data set is C3a and sC5b-9. In words: C3a and sC5b-9 generation in supernatants of plasma-incubated human islets (ELISA). It is filed as cell-based. As for the experimental part: (§2) Analysis of islets by COPAS and confocal microscopy: Approximately 5000 islets were added to 200 μl of human AB0-compatible hirudin-plasma or whole blood in heparinized test tubes. In some experiments, AB0-compatible hirudin-treated plasma was pre-incubated with or without 10 μM Ac-ICV(1MeW)[…]-NH2 (SEQ ID NO: 4; Katragadda et al., (2006) J Med Chem 49:4616-4622), a potent compstatin analog, for 15 minutes at 37° C. before the islets were added. The mixture of islets and plasma was incubated, with gentle shaking, at 37° C. for up to 30 minutes.
(§3) After centrifugation and addition of 10 mM EDTA (final concentration), the supernatants were stored at −70° C. The remaining islets were washed twice in cold PBS as described above. […]
C3a: Plasma was diluted 1/1000 in working buffer and analyzed as described previously (Enkdahl et al., 1992, Scand J Immunol 35: […]). […] Bound C3a was detected with biotinylated rabbit anti-C3a diluted 1/150, followed by HRP-conjugated streptavidin (Amersham, Little Chalfort, UK), diluted 1/500. […]
sC5b-9: Plasma was analyzed using a modification of the EIA described by Mollnes et al., 1985, Scand J Immunol 22: 197-202. Plasma diluted 1/5 was added to microtiter plates coated with anti-neoC9 monoclonal antibody MCaE11. sC5b-9 was detected with a polyclonal anti-C5 antibody diluted 1/500 (Dako A/S, Denmark), followed by HRP-conjugated anti-rabbit Ig diluted 1/500 (Dako). […]
In general terms: An ELISA detects its analyte on a solid surface through an enzyme-linked reagent.

Data set [2] deals with human islets. Put plainly: Lysis of islet cells, PI staining analysed by COPAS. To be noted: AB0-compatible plasma, 37° C., 30 minutes, 10 μM compstatin. The class given is cell-based. The method, then: as §1, §2, §3
The test system of data set [3] is human islets. In words: C-peptide release from human islets in AB0-compatible plasma (ELISA). It is filed as cell-based. Conditions: 30 minutes at 37° C., 10 μM compstatin. The method, then:
as §2
After centrifugation and addition of 10 mM EDTA (final concentration), the supernatants were stored at −70° C. The remaining islets were washed twice in cold PBS as described above. In order to visualize necrotic cells, propidium iodide (PI) was added to the islets 5 minutes before COPAS analysis. Islets that had not been incubated in plasma were used as controls. The islets were also examined by confocal microscopy.
C-peptide: Plasma was diluted 1/200 and analyzed using a C-peptide ELISA (Mercodia, Uppsala, Sweden).

The subject of a further data set is porcine islets. In words: Binding of C3b/iC3b to porcine islets incubated in human hirudin-treated plasma. The class given is cell-based, pig. Conditions: compstatin 10 μM. As for the experimental part: Treatment of porcine islets with human plasma: Approximately 1000 pig islets/40 μL of plasma (typically 5000 islets in 200 μL) were incubated in human hirudin-treated plasma in heparinized test tubes. Five different islet preparations and five different plasma preparations were used in these experiments. In some experiments, hirudin-treated plasma was preincubated with 10 μM (final concentration) of the potent compstatin analog, Ac-ICV(1MeW)[…]-NH2 (SEQ ID NO: 4; Katragadda et al., (2006) J Med. Chem. 49 (15): 4616), for 15 minutes at 37° C. before the islets were added. The mixture of islets and plasma was then incubated, with gentle shaking, at 37° C. for up to 30 min. […]
For all immunostaining experiments, the islets were incubated, while gently rotating on ice, for 30 minutes in the presence of an individual antibody. After being washed with PBS, the islets were treated with 1% formaldehyde (Apoteket, Gothenburg, Sweden) and kept on ice until analyzed.
Complex object parametric analyzer and sorter (COPAS) analysis: The fluorescence-stained islets were analyzed using a complex object parametric analyzer and sorter (COPAS; Union Biometrica, Somerville, Mass.), which is a large particle-based flow cytometry instrument previously used for islet analysis (Fernandez et al., (2005) Transplantation 80 (6): 729). […]

The test system of a further data set is complement activation. In words: Complement inhibition assay in 10% human serum (bound C3 fragments in microtiter wells). It is filed as biochemical. As for the experimental part:
Complement inhibition assay: One hundred microliters of 10% human serum (v/v), diluted in veronal buffer with 1 mM Ca^2+, 0.3 mM Mg^2+, 1% (w/v) BSA, and 0.05% (v/v) Tween 20, was incubated in the presence of serially diluted LMW-DS and/or compstatin in wells of microtiter plates for 30 minutes at 37° C. The wells were then washed with PBS containing 0.05% (v/v) Tween 20, and the bound C3 fragments were detected using […], of HRP-conjugated anti-C3c (Dako AS, Glostrup, Denmark).

The nature of data set [4]: Blood cell counts, liver and renal function in monkeys transplanted with porcine islets. The class given is in vivo, Cynomolgus monkeys (Macaca fascicularis). To be noted: 24 hours after islet transplantation; in U/L (unit assumed).
A short description of data set [5]: Plasma APTT and LMW-DS concentration in transplanted monkeys. It is filed as in vivo, Cynomolgus monkeys (Macaca fascicularis). As for the experimental part:
Blood samples: […] […] Analyses of blood and plasma samples: Activated Partial Thromboplastin Time (APTT) measurements were performed as previously described (Johansson et al., (2006) Am J. Transplant. 6 (2): 305).

Data set [6] concerns porcine islet grafts. Put plainly: Histological evaluation of grafted pig islets 24 h after intraportal transplantation.
For a further data set, the system named is IBMIR. The method, then: Blood samples: All blood samples from monkeys were drawn from a femoral vein catheter at 0, 20, and 40 min and at 1, 3 and 24 h after transplantation. Blood was drawn from healthy human blood donors into 7-mL tubes containing […] of hirudin, a specific inhibitor of thrombin (Refludan; Pharmion Ltd, Cambridge, UK). To obtain plasma, the samples were centrifuged at 4500×g for 5 min. If not immediately analyzed for activated partial thromboplastin time (APTT), the samples were stored at −70° C.
Platelet counts and differential leukocyte counts were obtained using a Coulter ACT-diff analyzer (Beckman Coulter, Miami, Fla.) and EDTA-treated blood. Plasma levels of thrombin-antithrombin (TAT) were quantified using commercially available EIA kits (TAT, Behringswerke, Marburg, Germany). C3a generation was measured in plasma according to the method of Nilsson Ekdahl et al. ((1992) Scand J. Immunol. 35 (1): 85), and sC5b-9 was analyzed using a modification of the enzyme immunoassay described by Nilsson Ekdahl et al. ((1992) Scand J. Immunol. 35 (1): 85) and Mollnes et al. ((1995) Artif Organs 19 (9): 909).

The test system of data set [7] is porcine islet grafts. Put plainly: Immunohistochemical staining of grafted pig islets 24 h after intraportal transplantation.
Where [8] appears, read: both treated monkeys compared to the controls.

Regarding Ac-ICV(1MeW)QDWGAHRCT-NH2 [compstatin], the “C3b/iC3b binding by confocal microscopy” value in the data set with human islets [1] (human islets in plasma, 5 and 30 minutes) is listed as “totally prevented”. Further, the “binding of C3b/iC3b to the islets” value in the data set on human islets [1] (human islets, AB0-compatible plasma, compstatin 10 μM, COPAS) is recorded as “significantly reduced; also recorded: abolished”; in the data set with porcine islets, “significantly reduced”. The “generation of fluid-phase complement activation products (C3a, sC5b-9)” value in the data set with C3a and sC5b-9 (human islets, AB0-compatible plasma, compstatin 10 μM) is given as “abrogated”. Moreover, in the data set on human islets [2], the “PI staining (lysis of islet cells)” value is recorded as “totally abrogated”. For the same substance, in the data set with human islets [3], the “release of C-peptide” value was “totally inhibited”. Moreover, the entries for the “inhibition of complement activation” value with complement activation (compstatin 5 μM), in the data set with complement activation (compstatin above 0.5 μM) and in the data set on complement activation (compstatin below 0.5 μM) were “total inhibition”, “gradually inhibited” and “no effect”, respectively.

Turning to Heparin, in data set [4], the ALT came out at 116.8±47.7 and the AST is 288.0±130.4. Besides, the APTT in data set [5] (heparin-treated monkeys, throughout the whole study period) is 25 to 40 s (s). The “completely preserved islets (score 0 in all categories)” value in the data set on porcine islet grafts [6] (control monkey M-10) came to 22%.

“Low molecular weight dextran sulfate [LMW-DS]”: the APTT result in [5] (LMW-DS-treated monkeys, 15 minutes after islet infusion) is on record as “around 100 s”; in [5] (monkey M-5, after 24 hours), 101 s; in data set [5] (monkey M-7, after 24 hours), 66 s; in data set [5] (monkey M-9, after 24 hours), 107 s. Besides, in the data set on IBMIR (LMW-DS-treated monkeys vs heparin controls), the “increase of coagulation marker TAT” value was “effectively inhibited”. Also, the “complement activation parameter C3a” value with IBMIR (setting [8]) is “suppressed”. For the same substance, the “complement activation parameter sC5b-9” value with IBMIR (setting [8]) is reported as “suppressed”. Further, in the data set with IBMIR (monkey M-5), the TAT result was “totally suppressed”. Further, the “inhibition of complement activation” value with complement activation (LMW-DS above 100 mg/L, absence of compstatin) was “more pronounced”; in the data set on complement activation (LMW-DS between 10 and 100 mg/L, absence of compstatin) it was “only marginally”. Moreover, in the data set with porcine islet grafts [6] (24 h after transplantation, semiquantitative scoring), the “histology of the transplanted grafts” value was “well kept”. Further, the “completely preserved islets (score 0 in all categories)” value with porcine islet grafts [6] (monkey M-6 as printed) was 37.2%; with porcine islet grafts [6] (monkey M-9) it was 44%. For the same substance, the “deposition of C3 fragment and C9 on the surface of the islets” value with porcine islet grafts [7] (24 h grafts) is listed as “no clear inhibition”. Besides, the “CD3+ T cell infiltration” value in the data set with porcine islet grafts [7] (vs controls M8 and M10) is recorded as “effectively suppressed”. Besides, in the data set with porcine islet grafts [7] (vs heparin controls, p=0.002), the “CD68+ macrophages in grafts” value is listed as “abrogated”. Also, in the data set on porcine islet grafts [7] (vs heparin controls, p=0.04), the “neutrophil elastase positive PMNs in grafts” value is recorded as “abrogated”. In addition, the “CD41+ platelets in grafts” value in the data set with porcine islet grafts [7] (vs heparin controls, p=0.056) is reported as “abrogated”.

For hirudin, in the data set with C3a and sC5b-9 (islets in whole blood anticoagulated with hirudin, n=4), the “generation of C3a and sC5b-9” value was “no effect”.
